Results taken from patent US8629127B2, “Compositions and methods of treatment for inflammatory diseases” (The Board of Regents of the University of Oklahoma, priority 2004, dated 2014).

Tests used:
[1] = patients with inflammatory bowel disease; cited from earlier work
TNBS-induced colitis [2] = assay: Macroscopic assessment of TNBS-induced colitis; format: in vivo, rat; conditions: scale 0-6
Text: Male Sprague Dawley rats (200-250 grams) were housed in cages containing contact bedding. Rats were deprived of food for 24 hrs prior to the induction of colitis, but were allowed free access to water throughout the experiment. Institutional approval for experimental protocols was provided by the research and animal care committees of the research services at the Oklahoma City Veterans Administration Medical Center.
(§1) Following a 24 hr fast, rats were lightly anesthetized using isoflurane followed by insertion of a polyethylene catheter into the anus. The tip of the catheter was advanced 8 cm proximal from the anus and a single dose of TNBS (Sigma, St. Louis, Mo.), dissolved in 50% ethanol, was injected through the cannula (15 mg dissolved in a 0.6 ml volume of 50% ethanol) to induce colitis. Following the administration of TNBS the animals were maintained in a head-down position for approximately 60 seconds to prevent leakage of the infusate. After 72 hrs, rats dosed initially with TNBS were randomly assigned to one of four treatment groups to receive daily intracolonic therapy in a manner similar to that used for TNBS administration. […] An additional group of rats (Group E) served as control and received saline per rectum on day 0 and at subsequent intervals that corresponded to treatment protocols. Rats were treated for either 5 or 8 days and then sacrificed by cervical dislocation. FIG. 1 illustrates the design of these experiments.
Upon sacrifice, the distal 8 cm of the colon was removed, opened by a longitudinal incision and rinsed with phosphate buffered saline to remove fecal material. Macroscopic assessment of colitis was carried out by an independent observer who was unaware of the treatment groups. Inflammation was present if the mucosa was erythematous. Ulceration of the mucosa was defined as a distinct break or interruption of the mucosa. Once macroscopic damage was assessed full thickness colonic tissue samples were taken from the inflamed areas and either processed for histology or snap frozen in liquid nitrogen for subsequent cytokine measurement and determination of myeloperoxidase (MPO) activity.

TNBS-induced colitis [3] = assay: Histological assessment of TNBS-induced colitis; format: in vivo, rat; conditions: for Cumulative (aggregate) microscopic colitis injury score: 8 days after TNBS, 5-day treatment, scale 0-15; for Decrease in aggregate microscopic injury score: 11 days after TNBS, 8-day treatment, vs TNBS alone
Text: Male Sprague Dawley rats (200-250 grams) were housed in cages containing contact bedding. Rats were deprived of food for 24 hrs prior to the induction of colitis, but were allowed free access to water throughout the experiment. Institutional approval for experimental protocols was provided by the research and animal care committees of the research services at the Oklahoma City Veterans Administration Medical Center. Following a 24 hr fast, rats were lightly anesthetized using isoflurane followed by insertion of a polyethylene catheter into the anus. The tip of the catheter was advanced 8 cm proximal from the anus and a single dose of TNBS (Sigma, St. Louis, Mo.), dissolved in 50% ethanol, was injected through the cannula (15 mg dissolved in a 0.6 ml volume of 50% ethanol) to induce colitis. Following the administration of TNBS the animals were maintained in a head-down position for approximately 60 seconds to prevent leakage of the infusate. After 72 hrs, rats dosed initially with TNBS were randomly assigned to one of four treatment groups to receive daily intracolonic therapy in a manner similar to that used for TNBS administration. […] An additional group of rats (Group E) served as control and received saline per rectum on day 0 and at subsequent intervals that corresponded to treatment protocols. Rats were treated for either 5 or 8 days and then sacrificed by cervical dislocation. FIG. 1 illustrates the design of these experiments. Colonic tissue samples taken from the initial segment were immersed in 10% phosphate buffered formalin and subsequently embedded in paraffin. Sections of 3 micron thickness were cut and stained with hematoxylin and eosin. The slides were then evaluated by a pathologist for epithelial damage, architectural changes, mononuclear infiltration, polymorphonuclear leukocyte (PMN) infiltration and ulceration. The individual microscopic features of colitis were graded according to criteria noted in Table 2. In addition to scoring individual features of colitis, an aggregate score of colitis was tabulated by adding together individual scores, thus, providing a global assessment of colitis. [table]

Myeloperoxidase activity = Myeloperoxidase activity in colon tissue, TNBS colitis; format: in vivo, rat; conditions: 11 days after TNBS; 8-day treatment
Description: as §1, with “experiments. Myeloperoxidase activity was used as an indirect measure of the severity of colonic inflammation by PMNs. […] C. The tissues were then removed from storage at −80° C. and allowed to thaw on ice. […] The absorbance changes were read at 450 nm and recorded. Results were expressed as ng/ml/g of tissue.” for “experiments.”

DSS-induced colitis = assay: Histological assessment of DSS-induced colitis; format: in vivo, rat; conditions: DSS colitis (4% DSS, 4 days); 4-day intracolonic treatment; maximal score 12
Text: Male Sprague Dawley rats (200-250 grams) were housed in cages containing contact bedding. Rats were deprived of food for 24 hrs prior to the induction of colitis, but were allowed free access to water throughout the experiment. Institutional approval for experimental protocols was provided by the research and animal care committees of the research services at the Oklahoma City Veterans Administration Medical Center. Colitis was induced by oral administration of a 4% solution of DSS (dextran sulfate sodium) in drinking water for 4 days. […] Animals received treatment for 4 days. Macroscopic indices of colonic injury were scored and tabulated. Histological features that were examined included epithelial damage and mucosal ulceration. Additional measures included determination of serum C-reactive protein (CRP) levels and cytokine gene expression in colonic tissues performed by ribonuclease protection assay (RPA). Colonic tissue samples taken from the initial segment were immersed in 10% phosphate buffered formalin and subsequently embedded in paraffin. Sections of 3 micron thickness were cut and stained with hematoxylin and eosin. The slides were then evaluated by a pathologist for epithelial damage, architectural changes, mononuclear infiltration, polymorphonuclear leukocyte (PMN) infiltration and ulceration. […]

IL-1B = assay: Cytokine gene expression in rat colon (RPA), TNBS colitis; format: in vivo; conditions: 11 days after TNBS, 8-day treatment
Description: (§2) Following a 24 hr fast, rats were lightly anesthetized using isoflurane followed by insertion of a polyethylene catheter into the anus. The tip of the catheter was advanced 8 cm proximal from the anus and a single dose of TNBS (Sigma, St. Louis, Mo.), dissolved in 50% ethanol, was injected through the cannula (15 mg dissolved in a 0.6 ml volume of 50% ethanol) to induce colitis. Following the administration of TNBS the animals were maintained in a head-down position for approximately 60 seconds to prevent leakage of the infusate. After 72 hrs, rats dosed initially with TNBS were randomly assigned to one of four treatment groups to receive daily intracolonic therapy in a manner similar to that used for TNBS administration. […] An additional group of rats (Group E) served as control and received saline per rectum on day 0 and at subsequent intervals that corresponded to treatment protocols. Rats were treated for either 5 or 8 days and then sacrificed by cervical dislocation. FIG. 1 illustrates the design of these experiments. Following the manufacturer's protocol, 1 ml of TRI Reagent (Sigma, St. Louis, Mo.) is used per 100 mg of tissue. The frozen tissue is placed into the TRI Reagent and immediately homogenized using a tissue macerator. The homogenates are transferred to microcentrifuge tubes and 0.2 ml of chloroform is added per ml of TRI Reagent used. The samples are shaken thoroughly and allowed to sit at room temp for 3 min. Samples were then centrifuged at 12000×g for 15 min at […]. After centrifugation, the upper aqueous phase was transferred to a new tube and […] of 2-propanol is added to precipitate the RNA. After sitting at room temp for 10 min. the samples are centrifuged at 12000×g for 15 min. The supernatants are discarded and the pellets are washed in 70% ethanol followed by centrifugation at 12000×g for 5 min. The ethanol was removed and the pellets are dissolved in 50 μl of DEPC treated water per sample. Quantitation is performed by spectrophotometry at 260 nm and 280 nm. RPA analysis was performed with RiboQuant™ multi-probe RNase protection assay system (BD Biosciences-Pharmingen, San Diego, Calif.). To 20 μg of total RNA in 8 μl of hybridization buffer and 2 μl of ^32P-labeled in vitro transcribed RNA probes were added. The probes were transcribed from the multiprobe template set rCK-1 which as a panel of probes against IL-1a, IL-1b, IL-3, IL-5, IL-10, IL-2, TNFα, TNBβ, GAPDH genes. Probes were prepared according to the manufactures protocol. The RNA samples containing labeled probes were incubated briefly at 90° C., slowly cooled to 56° C. and hybridized overnight at that temperature. The samples were then slowly cooled to 30° C. Thereafter, a mixture of RNases A and T1 was added to digest single-stranded RNA leaving the double-stranded RNA formed by the probes annealing to their cognate mRNAs intact. Following proteinase K digestion and phenol-chloroform extraction, the undigested double-stranded RNA was precipitated with ammonium acetate and ethanol. […] The ethanol was removed and the pellets were dissolved in 5 μl of formamide loading dye. The double-stranded RNAs were resolved on a 5% polyacrylamide/urea gel run in TBE buffer. After electrophoresis, the gel was dried at 80° C. under vacuum and then exposed to a PhosphorImager screen overnight. Detection and quantitation of the resolved bands on the gel were performed on a Storm PhosphorImager™ system (Amersham Biosciences, Piscataway, N.J.).

TNF-α = assay: as above; format: in vivo; conditions: 11 days after TNBS, 8-day treatment
Description: as §2

IL-1A = assay: as above; format: in vivo; conditions: 11 days after TNBS, 8-day treatment
Description: as §2

IL-6 = assay: as above; format: in vivo; conditions: 11 days after TNBS, 8-day treatment
Description: as §2

IL-4 = assay: as above; format: in vivo; conditions: 11 days after TNBS, 8-day treatment
Description: as §2

[4] = 8 days after TNBS, 5-day intracolonic treatment, 5-ASA 100 mg/kg, NAC 40 mM
[5] = 11 days after TNBS, 8-day intracolonic treatment

Row | SMILES | Patients who cannot tolerate this medication (side effects) [1] | Macroscopic injury score (TNBS-induced colitis [2]; [4]) | Macroscopic injury score (TNBS-induced colitis [2]; [5]) | Cumulative (aggregate) microscopic colitis injury score (TNBS-induced colitis [3]) | Decrease in aggregate microscopic injury score (TNBS-induced colitis [3]) | Reduction of MPO activity below TNBS values (Myeloperoxidase activity) | Aggregate microscopic injury score (DSS-induced colitis) | IL-1B gene expression, Mean ± SEM (IL-1B) | TNF-α gene expression, Mean ± SEM (TNF-α) | IL-1A gene expression, Mean ± SEM (IL-1A) | IL-6 gene expression, Mean ± SEM (IL-6) | IL-4 gene expression, Mean ± SEM (IL-4)
1 | O=C(O)c1cc(/N=N/c2ccc(S(=O)(=O)Nc3ccccn3)cc2)ccc1O [sulfasalazine] | up to one third | – | – | – | – | – | – | – | – | – | – | –
2 | Nc1ccc(O)c(C(=O)O)c1 [5-ASA, 5-aminosalicylic acid] | – | 3.0±0.7 | 1.8±0.2 | 9.0±0.9 | 46% | 32% | 4.1±0.9 | 11.49 ± 2.54 Relative O.D units | 1.25 ± 0.12 Relative O.D units | 1.33 ± 0.18 Relative O.D units | 0.79 ± 0.22 Relative O.D units | 1.40 ± 0.25 Relative O.D units
3 | CC(=O)N[C@@H](CS)C(=O)O [NAC, N-acetylcysteine] | – | 4.1±0.6 | 1.2±0.2 | 9.0±1.8 | 53% | 40% | 4.0±1.1 | 11.88 ± 1.0 Relative O.D units | 1.04 ± 0.017 Relative O.D units | 1.28 ± 0.16 Relative O.D units | 0.76 ± 0.14 Relative O.D units | 1.20 ± 0.26 Relative O.D units
